Experimental data: patent US8629328B2 (Monsanto Technology LLC, priority 2006, dated 2014)
Like-named read-outs stand apart in the source and are kept apart here.

Columns and labels:
Marestail Resistant (KY) = assay: Dicamba, glyphosate and their combination on marestail; format: in vivo, Conyza canadensis; details: dicamba formulation 40 g/ha
[1] = system: transgenic corn plants transformed with DNA constructs carrying DMO; details: for Percentage brace root injury: 0.5 lb/a at V3 followed by 1 lb/a at V8
Source text: This expression element contains first intron and flanking UTR exon sequences from the rice actin 1 gene and includes 12 nt of exon 1 at the 5′ end and 7 nt of exon 2 at the 3′ end), and a 3′UTR (e.g. TaHsp17). Nucleotide sequences/an or patent references for various expression elements are disclosed in co-pending application U.S. Ser. No. 60/891,675.
Transgenic corn plants were produced by the methods known in the art such as WO9506722 and US patent application 20040244075. […] Six events from each of the six constructs were used. […] The entire plot was fertilized uniformly to obtain an agronomically acceptable crop. A soil insecticide such as Force® 3G (Syngenta Crop Protection, Greensboro, N.C., USA) at 5 oz. per 1000 ft. of row for control of corn rootworm was applied at planting time. If black cutworm infestation was observed, POUNCE® 3.2EC at 4 to 8 oz. per acre rate (FMC Corporation, Philadelphia, Pa.) was used. In addition, an insecticide spray program was used to control all above ground lepidopteran pests including European corn borer, corn earworm, and fall armyworm. POUNCE® 3.2EC at 4 to 8 oz. per acre was applied every 3 weeks to control lepidopteran pests; about 4 applications were made. The plot was kept weed free with a pre-emergence application of a herbicide such as Harness® Xtra 5.6 L (Monsanto, St. Louis, Mo.) and Degree Xtra® (Monsanto, St. Louis, Mo.).
Brace root injury was evaluated visually by counting the number of plants in a row showing an “atypical” morphology of having the brace roots fused as compared to a typical morphology of “finger-like” structure.

COc1c(Cl)ccc(Cl)c1C(=O)O [dicamba, 3,6-dichloro-o-anisic acid]
% Injury (18 DAT) (Marestail Resistant (KY)): about 52%
level of brace root injury ([1]; constructs coding for a DMO linked to a CTP (pMON73716, pMON73700, pMON73715, pMON73703)): lower level of brace root injury
level of brace root injury ([1]; constructs coding for a DMO without CTP (pMON73699, pMON73704)): higher level of brace root injury
Percentage brace root injury ([1]; pMON73699 (PC1SV/I-OsAct1/DMO-Wmc/TaHsp17)): 93.2%
Percentage brace root injury ([1]; pMON73700 (PC1SV/I-OsAct1/CTP1/DMO-Wmc/TaHsp17)): 74.4%
Percentage brace root injury ([1]; pMON73703 (e35S/I-OsAct1/CTP1/DMO-Wmc/TaHsp17)): 68.8%
Percentage brace root injury ([1]; pMON73704 (e35S/I-OsAct1/DMO-Wmc/TaHsp17)): 91.3%
Percentage brace root injury ([1]; pMON73715 (PC1SV/I-OsAct1/CTP2syn/DMO-Wmc/TaHsp17)): 68.2%
Percentage brace root injury ([1]; pMON73716 (PC1SV/I-OsAct1/TaWaxy/DMO-Wmc/TaHsp17)): 78.8%
